# Laboratory results published in publication PMC7144330, “2-Thiopyrimidine/chalcone hybrids: design, synthesis, ADMET prediction, and anticancer evaluation as STAT3/STAT5a inhibitors” (Journal of Enzyme Inhibition and Medicinal Chemistry, 2020).
# Read-outs that look alike come from different tables or passages of the source.
# What was measured:
# [1] = system: HT-29; test: MTT cytotoxic assay, colon HT-29 cell line; type: cell-based; details: read-out: (IC50 μM)±SD HT-29
# Experimental: (§1) To investigate cytotoxic activity of the final target compounds 9a–r, MTT assay was performed. Three different cell lines were used, leukaemia (K-562), breast (MCF-7) and colon (HT-29) cell lines. Cisplatin and erlotinib were the reference drugs used in this study.
# (§2) All target compounds 9a–r were screened against three different cancer cell lines, leukaemia (K-562), breast (MCF-7), and colon (HT-29). MTT assay was used. Both cisplatin and erlotinib were used as the reference drugs. Cytotoxicity results are recorded in Table 1.
# [2] = system: K-562; test: MTT cytotoxic assay, leukaemia K-562 cell line; type: cell-based
# Experimental: as §1, §2
# [3] = system: MCF-7; test: MTT cytotoxic assay, breast MCF-7 cell line; type: cell-based, human
# Experimental: as §1, §2
# [4] = Homo sapiens, K562, read-out: (IC50 μM)±SD K-562
# [5] = Homo sapiens, MCF7, read-out: (IC50 μM)±SD MCF-7
melting point [°C],SMILES,IC50 [1] [µM],IC50 ([2]; read-out: (IC50 μM)±SD K-562) [µM],IC50 ([3]; read-out: (IC50 μM)±SD MCF-7) [µM],IC50 ([1]; Homo sapiens) [µM],"IC50 [2, 4] [µM]","IC50 [3, 5] [µM]"
–,"N.N.[Cl][Pt][Cl] [Cisplatin, reference compound]",1.12 ± 0.06,2.31 ± 0.09,6.62 ± 0.29,–,–,–
165 to 167,"COc1ccc(-c2cc(-c3ccc(C)cc3)nc(SCC(=O)Nc3ccc(C(=O)/C=C/c4ccc(OC)c(OC)c4)cc3)n2)cc1 [Compound 9b, (ZE)-N-{4-[3-(3,4-Dimethoxyphenyl)acryloyl]phenyl}-2-[4-(4-methoxyphenyl)-6-p-tolylpyrimidin-2-ylthio]acetamide]",–,–,–,16.4 ± 0.76,3.62 ± 0.08,22.4 ± 1.57
195 to 197,"COc1ccc(-c2cc(-c3ccc(C)cc3)nc(SCC(=O)Nc3ccc(C(=O)/C=C/c4cc(OC)c(OC)c(OC)c4)cc3)n2)cc1 [Compound 9c, (ZE)-2-[4-(4-Methoxyphenyl)-6-p-tolylpyrimidin-2-ylthio]-N-{4-[3-(3,4,5-trimethoxyphenyl)acryloyl]phenyl}acetamide]",–,–,–,8.7 ± 0.28,11.42 ± 0.04,4.25 ± 0.13
225 to 227,"COc1ccc(-c2cc(-c3ccc([N+](=O)[O-])cc3)nc(SCC(=O)Nc3ccc(C(=O)/C=C/c4ccc(OC)c(OC)c4)cc3)n2)cc1 [Compound 9e, (ZE)-N-{4-[3-(3,4-Dimethoxyphenyl)acryloyl]phenyl}-2-[4-(4-methoxyphenyl)-6-(4-nitrophenyl)pyrimidin-2-ylthio]-acetamide]",–,–,–,7.31 ± 0.36,7.05 ± 0.28,18.7 ± 0.92
280 to 282,"COc1ccc(/C=C/C(=O)c2ccc(NC(=O)CSc3nc(-c4ccc(OC)cc4)cc(-c4ccc(OCCCl)cc4)n3)cc2)cc1 [Compound 9g, (ZE)-2-{4-[4-(2-Chloroethoxy)phenyl]-6-(4-methoxyphenyl)pyrimidin-2-ylthio}-N-{4-[3-(4-methoxyphenyl)acryloyl]phenyl}acetamide]",–,–,–,10.6 ± 0.47,3.17 ± 0.11,10.4 ± 0.64
135 to 137,"COc1ccc(-c2cc(-c3ccc(OCCCl)cc3)nc(SCC(=O)Nc3ccc(C(=O)/C=C/c4ccc(OC)c(OC)c4)cc3)n2)cc1 [Compound 9h, (ZE)-2-{4-[4-(2-Chloroethoxy)phenyl]-6-(4-methoxyphenyl)pyrimidin-2-ylthio}-N-{4-[3-(3,4-dimethoxyphenyl)acryloyl]phenyl}acetamide]",–,–,–,18.8 ± 0.88,7.07 ± 0.31,7.7 ± 0.32
116 to 118,"COc1ccc(-c2cc(-c3ccc(OCCCl)cc3)nc(SCC(=O)Nc3ccc(C(=O)/C=C/c4cc(OC)c(OC)c(OC)c4)cc3)n2)cc1 [Compound 9i, (ZE)-2-{4-[4-(2-Chloroethoxy)phenyl]-6-(4-methoxyphenyl)pyrimidin-2-ylthio}-N-{4-[3-(3,4,5-trimethoxyphenyl)acryloyl]phenyl}acetamide]",–,–,–,11.5 ± 0.23,9.71 ± 0.41,11.5 ± 0.81
242 to 244,"COc1ccc(/C=C/C(=O)c2ccc(NC(=O)CSc3nc(-c4ccc(C)cc4)cc(-c4ccc(Cl)cc4)n3)cc2)cc1 [Compound 9j, (ZE)-2-[4-(4-Chlorophenyl)-6-p-tolylpyrimidin-2-ylthio]-N-{4-[3-(4-methoxyphenyl)acryloyl]phenyl}acetamide]",–,–,–,6.26 ± 0.34,4.26 ± 0.06,6.26 ± 0.24
144 to 146,"COc1ccc(/C=C/C(=O)c2ccc(NC(=O)CSc3nc(-c4ccc(C)cc4)cc(-c4ccc(Cl)cc4)n3)cc2)cc1OC [Compound 9k, (ZE)-2-[4-(4-Chlorophenyl)-6-p-tolylpyrimidin-2-ylthio]-N-{4-[3-(3,4-dimethoxyphenyl)acryloyl]phenyl}acetamide]",–,–,–,5.61 ± 0.18,9.95 ± 0.29,28.7 ± 1.39
234 to 236,"COc1cc(/C=C/C(=O)c2ccc(NC(=O)CSc3nc(-c4ccc(C)cc4)cc(-c4ccc(Cl)cc4)n3)cc2)cc(OC)c1OC [Compound 9l, (ZE)-2-[4-(4-Chlorophenyl)-6-p-tolylpyrimidin-2-ylthio]-N-{4-[3-(3,4,5-trimethoxyphenyl)acryloyl]phenyl}acetamide]",–,–,–,2.37 ± 0.07,42.6 ± 1.99,13.5 ± 0.62
190 to 192,"COc1ccc(/C=C/C(=O)c2ccc(NC(=O)CSc3nc(-c4ccc(Cl)cc4)cc(-c4ccc([N+](=O)[O-])cc4)n3)cc2)cc1 [Compound 9m, (ZE)-2-[4-(4-Chlorophenyl)-6-(4-nitrophenyl)pyrimidin-2-ylthio]-N-{4-[3-(4-methoxyphenyl)acryloyl]phenyl}acetamide]",–,–,–,7.9 ± 0.22,3.86 ± 0.14,3.9 ± 0.09
268 to 270,"COc1cc(/C=C/C(=O)c2ccc(NC(=O)CSc3nc(-c4ccc(Cl)cc4)cc(-c4ccc([N+](=O)[O-])cc4)n3)cc2)cc(OC)c1OC [Compound 9o, (ZE)-2-[4-(4-Chlorophenyl)-6-(4-nitrophenyl)pyrimidin-2-ylthio]-N-{4-[3-(3,4,5-trimethoxyphenyl)acryloyl]phenyl}acetamide]",–,–,–,3.62 ± 0.08,12.3 ± 0.72,3.62 ± 0.084
136 to 138,COc1ccc(/C=C/C(=O)c2ccc(NC(=O)CSc3nc(-c4ccc(Cl)cc4)cc(-c4ccc(OCCCl)cc4)n3)cc2)cc1 [Compound 9p],–,–,–,11.6 ± 0.63,1.74 ± 0.04,11.6 ± 0.49
210 to 212,COc1ccc(/C=C/C(=O)c2ccc(NC(=O)CSc3nc(-c4ccc(Cl)cc4)cc(-c4ccc(OCCCl)cc4)n3)cc2)cc1OC [Compound 9q],–,–,–,6.06 ± 0.29,5.77 ± 0.16,6.81 ± 0.25
–,"C#Cc1cccc(Nc2ncnc3cc(OCCOC)c(OCCOC)cc23)c1 [Erlotinib, reference compound]",–,–,–,9.2 ± 0.41,9.85 ± 0.51,10.6 ± 0.58
